Converted amounts (≈) assume the structure as drawn.

Format in all cases: functional
The subject of experiment [1] is Staphylococcus aureus. Kind of experiment: Antibacterial activity against epidemic methicillin-resistant Staphylococcus aureus 16 after 18 hrs by MTT assay. The note with it: Staphylococcus aureus, 16, 18 h.
The subject of experiment [2] is Staphylococcus aureus. Kind of experiment: Antibacterial activity against epidemic methicillin-resistant Staphylococcus aureus 15 after 18 hrs by MTT assay. The note with it: Staphylococcus aureus, 15, 18 h.
Experiment [3] concerns Staphylococcus aureus. Kind of experiment: Antibacterial activity against Staphylococcus aureus ATCC […] after 18 hrs by MTT assay.
The test system of experiment [4] is Staphylococcus aureus. The experiment in a line: Antibacterial activity against multi drug-resistant Staphylococcus aureus 1199B after 18 hrs by MTT assay.
In experiment [5] the test system is Staphylococcus aureus. The experiment in a line: Antibacterial activity against erythromycin-resistant Staphylococcus aureus RN4220 after 18 hrs by MTT assay. The settings on record: RN4220, 18 h.
The subject of experiment [6] is Staphylococcus aureus. Kind of experiment: Antibacterial activity against multi drug-resistant Staphylococcus aureus XU212 after 18 hrs by MTT assay. The settings on record: XU212, 18 h.

As for `COc1cc(O)c(C(=O)CC(C)C)c(O)c1C` [ASPIDINOL C], the minimum inhibitory concentration (MIC) was 4 µg/mL (≈ 16.8 µM) in experiment [1]; 8 µg/mL (≈ 33.6 µM) in experiment [2]; 8 µg/mL (≈ 33.6 µM) in experiment [3]; 2 µg/mL (≈ 8.39 µM) in experiment [4]; 16 µg/mL (≈ 67.1 µM) in experiment [5]; 32 µg/mL (≈ 134 µM) in experiment [6].

Take `CCC(C)C(=O)c1c(O)cc(OC)c(C)c1O` (stereo not drawn) [ASPIDINOL D]: the MIC is 4 µg/mL (≈ 16.8 µM) in experiment [1]; 4 µg/mL (≈ 16.8 µM) in experiment [2]; 8 µg/mL (≈ 33.6 µM) in experiment [3]; 4 µg/mL (≈ 16.8 µM) in experiment [4]; 8 µg/mL (≈ 33.6 µM) in experiment [5]; 8 µg/mL (≈ 33.6 µM) in experiment [6].

`CCn1cc(C(=O)O)c(=O)c2cc(F)c(N3CCNCC3)cc21` [NORFLOXACIN]: the MIC worked out at 128 µg/mL (≈ 401 µM) in experiment [1]; 0.5 µg/mL (≈ 1.57 µM) in experiment [2]; 0.5 µg/mL (≈ 1.57 µM) in experiment [3]; 32 µg/mL (≈ 100 µM) in experiment [4]; 0.5 µg/mL (≈ 1.57 µM) in experiment [5]; 8 µg/mL (≈ 25.1 µM) in experiment [6].

Source of the values: ChEMBL document CHEMBL1641398, “Norlignans, acylphloroglucinols, and a dimeric xanthone from Hypericum chinense” (2010).
